US7629318B2, “Immunosuppressant compounds, methods and uses related thereto” (priority 2002, dated 2009)
Where “and” joins values, the source holds several entries; their conditions need not be identical. Identical values can stand only once. Like-named read-outs stand apart in the source and are kept apart here. Square brackets hold non-standard residues; d marks the D form. Peptide text beside a SMILES is read from it. * marks the point of attachment. Gly(1-amidinopiperidin-4-yl) = N=C(N)N1CCC([C@H](N)C(=O)O)CC1; Tic = O=C(O)[C@@H]1Cc2ccccc2CN1; Cha = N[C@@H](CC1CCCCC1)C(=O)O; NMe(benzyl) = CN(Cc1ccccc1)*; Nle = CCCC[C@H](N)C(=O)O; X2 = OCCOCCN(Cc1ccccc1)*

Columns and labels:
[1] = molecular target: Cathepsin B1 (EC 3.4.22.1 from bovine spleen) (Bos taurus, UniProt P07688); conditions: Cathepsin B, 4 h
Procedure: The stability of the peptidomimetic compounds towards lysosomal degradation was examined by incubation with Cathepsin B1 (EC 3.4.22.1 from bovine spleen; Sigma-Aldrich, Taufkirchen; dissolved at 10000 U/l in ddH2O) and D (EC 3.4.23.5 from bovine spleen; Sigma-Aldrich, Taufkirchen; dissolved at 10000 U/l in ddH2O) for four hours at 37° C. using a compound concentration of 50 μM and an enzyme/substrate ratio of 0.4 U/μmol. The samples contained 25 ppm 4-isopropyl benzyl alcohol (IPBA; Sigma-Aldrich, Taufkirchen) as internal standard.
Assay buffer was prepared by adding 35 μl of a 1% IPBA in DMSO solution and 28 μl of a 10000 U/l Cathepsin B1 or Cathepsin D stock solution to 14 ml of 100 mM sodium acetate, 1 mM EDTA, 1 mM DTT, pH 5.00 or 100 mM sodium acetate, pH 4.50, respectively. 8.8 μl of a 5 mM (or 4.4 μl of a 10 mM) compound stock solution (in 10% DMSO/water) were placed into a 1.5 ml Eppendorf tube. The reaction was started by adding 875 μl fully supplemented assay buffer to each tube, whirlmixing and incubation at 37° C. At 0 and 4 hours 400 μl samples were taken and the enzyme was inactivated by addition of 40 μl 150% TFA aq. The samples were kept frozen at −20° C. until analysis by RP-HPLC (200 μl injection volume; Nucleosil 100-5 C18, 12.5×4.6 cm; Gradient: 20-50% acetonitrile in 30 min).

[2] = Stability of compounds in human blood plasma; assay type: in vitro ADME
In short: (§1)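 Compounds at 5 μM final in rat, mouse or human plasma, incubated at 37 °C and sampled at 0, 6 and 24 h. Proteins precipitated with acetonitrile and the supernatant dried and reconstituted in 50% acetonitrile/0.1% TFA. PBS controls run for unstable compounds.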

[3] = tested on: T-cell proliferation, DR14-LN; conditions: for Immunsupressive assays DR14-LN (Max) % Inhibition: maximal inhibition; for IC50: read-out: Immunsupressive assays DR14-LN (IC50)
[4] = tested on: T-cell proliferation, lymph node cells of chimeric 0401-IE transgenic mice; conditions: for Immunsupressive assays DR4-LN (Max) % Inhibition: maximal inhibition; for IC50: read-out: Immunsupressive assays DR4-LN (IC50); for Immunsupressive assays DR4-LN (Max) % Inhibition / IC50: DR4-LN
In short: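 Antigen-primed lymph node cells (1.5×10^5/well) from mice lacking murine class II and carrying a chimeric human RA-associated class II transgene, cultured 3 days with ovalbumin at half-maximal dose plus compound (~0.1–200 uM) in serum-free HL-1. Proliferation read by 3H-thymidine incorporation over the final 16 h.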

[5] = Stability of compounds in rat blood plasma; assay type: in vitro ADME
In short: as §1

[6] = Stability of compounds in mouse blood plasma; assay type: in vitro ADME
In short: as §1

SMILES: CCCC[C@H](NC(=O)[C@@H]1Cc2ccccc2CN1C(=O)[C@@H](NC(=O)[C@H](CC1CCCCC1)NC(C)=O)C1CCN(C(=N)N)CC1)C(=O)N(CCOCCO)Cc1ccccc1 [Compound P101, Ac-Cha-Gpg-Tic-Nle-N(Bn)CH2CH2OCH2CH2OH] (Ac-[Cha][Gly(1-amidinopiperidin-4-yl)][Tic][Nle]-X2)
- Stability (Arbitrary units) Cath B 4 h [1]: 100 Arbitrary units
- Stability (Arbitrary units) Human 24 h [2]: 107 Arbitrary units
- Stability (Arbitrary units) Human 6 h ([2]; human plasma, 6 h): 106 Arbitrary units
- Immunsupressive assays DR14-LN (Max) % Inhibition [3]: 100%
- IC50 [3]: 46 µM
- Immunsupressive assays DR4-LN (Max) % Inhibition [4]: 100%
- immunosuppressive properties as measured by a T-cell activation assay ([4]; dose-response curves): immunosuppressive properties
- IC50 [4]: 69 µM and 66 µM
- Stability (Arbitrary units) Rat 6 h [5]: 73 Arbitrary units
- Stability (Arbitrary units) Rat 24 h [5]: 81 Arbitrary units
- Stability (Arbitrary units) Mouse 6 h [6]: 107 Arbitrary units
- Stability (Arbitrary units) Mouse 24 h [6]: 94 Arbitrary units

SMILES: CCCC[C@H](NC(=O)[C@@H]1Cc2ccccc2CN1C(=O)[C@H](CCCNC(=N)N)NC(=O)[C@H](CC1CCCCC1)NC(C)=O)C(=O)N(C)Cc1ccccc1 [Compound P71, Ac-Cha-Arg-Tic-Nle-N(Me)Bn] (Ac-[Cha]R[Tic][Nle]-{NMe(benzyl)})
- Stability (Arbitrary units) Cath B 4 h [1]: 97 Arbitrary units
- Stability (Arbitrary units) Human 6 h [2]: 107 Arbitrary units
- Stability (Arbitrary units) Human 24 h [2]: 90 Arbitrary units
- Immunsupressive assays DR14-LN (Max) % Inhibition [3]: 98% and 96%
- IC50 [3]: 15 µM
- Immunsupressive assays DR4-LN (Max) % Inhibition [4]: 102%
- IC50 [4]: 19 µM
- Stability (Arbitrary units) Rat 6 h [5]: 89 Arbitrary units
- Stability (Arbitrary units) Rat 24 h [5]: 53 Arbitrary units
- Stability (Arbitrary units) Mouse 6 h [6]: 117 Arbitrary units

SMILES: CSCC[C@H](NC(=O)[C@@H]1Cc2ccccc2CN1C(=O)[C@@H](NC(=O)[C@H](CC1CCCCC1)NC(C)=O)C1CCN(C(=N)N)CC1)C(=O)N(CCOCCO)Cc1ccccc1 [Compound P102, Ac-Cha-Gpg-Tic-Met-N(Bn)CH2CH2OCH2CH2OH] (Ac-[Cha][Gly(1-amidinopiperidin-4-yl)][Tic]M-X2)
- Stability (Arbitrary units) Cath B 4 h [1]: 116 Arbitrary units
- Stability (Arbitrary units) Human 6 h [2]: 110 Arbitrary units
- Stability (Arbitrary units) Human 24 h ([2]; human plasma, 24 h): 116 Arbitrary units
- Immunsupressive assays DR14-LN (Max) % Inhibition [3]: 100%
- IC50 [3]: 73 µM
- Immunsupressive assays DR4-LN (Max) % Inhibition [4]: 60%
- IC50 [4]: 110 µM
- Stability (Arbitrary units) Rat 6 h [5]: 131 Arbitrary units
- Stability (Arbitrary units) Rat 24 h [5]: 121 Arbitrary units
- Stability (Arbitrary units) Mouse 6 h [6]: 105 Arbitrary units
- Stability (Arbitrary units) Mouse 24 h [6]: 101 Arbitrary units
